# pIC50: −log10 of the molar value.
# Key:
# [1] = Determination of metabolic stability with human liver microsomes; type: in vitro ADME; details: pH 7.6; pooled human liver microsomes, 1 mg/ml protein, 1 μM compound, 37° C., NADPH; read-out: In vitro stability in human liver microsome incubations t1/2
# Description: Determination of Metabolic Stability with Human Liver Microsomes
# The metabolic degradation of the test compound is assayed at 37° C. with pooled human liver microsomes. The final incubation volume of 100 μl per time point contains TRIS buffer pH 7.6 (0.1 M), magnesium chloride (5 mM), microsomal protein (1 mg/ml) and the test compound at a final concentration of 1 μM. Following a short preincubation period at 37° C., the reactions are initiated by addition of beta-nicotinamide adenine dinucleotide phosphate, reduced form (NADPH, 1 mM) and terminated by transferring an aliquot into acetonitrile after different time points. Additionally, the NADPH-independent degradation is monitored in incubations without NADPH, terminated at the last time point. The [%] remaining test compound after NADPH independent incubation is reflected by the parameter c (control) (metabolic stability). The quenched incubations are pelleted by centrifugation (10′000 g, 5 min.) An aliquot of the supernatant is assayed by LC-MS/MS for the amount of parent compound.
# The half-life (t1/2 INVITRO) is determined by the slope of the semilogarithmic plot of the concentration-time profile. The intrinsic clearance (CL_INTRINSIC) is calculated by considering the amount of protein in the incubation: CL_INTRINSIC [μl/min/mg protein]=(ln 2/(half-life [min]*protein content [mg/ml]))*1′000.
# [2] = test system: neutrophil elastase activity in BALF cell lysate; test: Target engagement mouse model: neutrophil elastase activity in BALF cell lysate after LPS challenge; type: in vivo; details: female Crl:NMRI mice, 0.5 mg/kg bid for 7 days, oral, LPS inhalation challenge
# Description: Target Engagement Mouse Model Compound Treatment:
# To monitor the effect of the test compounds on neutrophil elastase activity in peripheral neutrophils, female Crl:NMRI mice were treated as follows:
# Group 1 (6 animals): 0.5 mg/kg test compound in 0.5% Natrosol (pH 2-3)
# Group 2 (6 animals): 0.5% Natrosol (pH 2-3)
# Group 3 (2 animals): 0.5% Natrosol (pH 2-3)
# Test compounds or Natrosol solution were applied on Monday to Friday at 7:00 am and 4:00 pm each day of the first week of the study and on Monday and Tuesday (7:00 am and 4:00 pm) the second week. Test compounds or Natrosol were applied orally.
# LPS Challenge and Bronchioalveolar Lavage Preparation: […]
# 4 hours after the LPS challenge a bronchioalveolar lavage using 2×1 ml Hank's salt solution per animal was prepared from all animals and the cell numbers in the lavage fluid determined using a Sysmex XT-1800i. […]
# NE activity in the BALF (bronchioalveolar lavage fluid) cell lysate was measured using the fluorescent NE substrate MeOSuc-Ala-Ala-Pro-Val-AMC (Bachem): 10 μl cell lysate were mixed with 5 μl assay buffer (20 mM Tris pH 7.5, 100 mM NaCl, 0.1% human serum albumin) and 5 μl substrate (1 mM in assay buffer) in a 384 well plate (Optiplate 384f, PerkinElmer). The reaction mixture was incubated for 60 min at room temperature and the fluorescence measured (360 nm excitation, 460 nm emission). […]
# [3] = biological target: recombinant human DPPI (Cathepsin C) (Homo sapiens (Human), UniProt P53634); test: Inhibition of human DPPI (Cathepsin C); type: biochemical; details: recombinant human DPPI, substrate Gly-Arg-AMC, pH 6.0; read-out: Inhibition of DPPI IC50
# Chain of recombinant human DPPI (Cathepsin C) (P53634 231-394): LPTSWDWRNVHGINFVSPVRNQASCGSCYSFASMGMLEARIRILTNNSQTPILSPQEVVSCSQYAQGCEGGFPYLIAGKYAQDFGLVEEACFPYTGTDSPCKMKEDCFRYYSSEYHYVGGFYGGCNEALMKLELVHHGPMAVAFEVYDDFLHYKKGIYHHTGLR
# Chain of recombinant human DPPI (Cathepsin C) (P53634 25-134): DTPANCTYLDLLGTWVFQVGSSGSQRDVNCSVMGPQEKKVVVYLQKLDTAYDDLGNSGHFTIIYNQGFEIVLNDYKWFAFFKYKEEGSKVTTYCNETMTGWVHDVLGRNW
# Chain of recombinant human DPPI (Cathepsin C) (P53634 395-463): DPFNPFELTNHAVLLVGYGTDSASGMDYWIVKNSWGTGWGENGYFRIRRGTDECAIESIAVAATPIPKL
# Description: Inhibition of Human DPPI (Cathepsin C)
# The analysis of the data was performed by calculating the percentage of fluorescence in the presence of test compound in comparison to the fluorescence of the vehicle control after 20 subtracting the background fluorescence using the following formula: (RFU(sample)−RFU(background))*100/(RFU(control)−RFU(background))
# Data from these calculations were used to generate IC50 values for inhibition of DPPI, respectively.
# [4] = test system: neutrophil elastase activity in U937 cells; test: Determination of neutrophil elastase activity in U937 cytosolic lysate preparation after incubation with test compound; type: cell-based; details: Homo sapiens, U-937; U937 cells incubated 48 hours with compound, NE activity in lysate; read-out: Reduction of NE-activity in U937 cells IC50
# Description: Determination of Neutrophil Elastase Activity in U937 Cytosolic Lysate Preparation after Incubation with Test Compound Materials:
# 24 well Nunclon cell culture plates (No. 142475) and 96 well plates (No. 267245) were from Nunc.
# Dimethylsulfoxid (DMSO) was from Sigma (Prod. No. D8418). Nonidet-P40 (NP40) was from USBiological (Prod. No. N3500)
# Substrate, specific for Neutrophil elastase, was from Bachem (MeOSuc-Ala-Ala-Pro-Val-AMC; Prod. No. I-1270).
# Human neutrophil elastase was from Calbiochem (Prod. No. 324681)
# Tris-buffer (100 mM Tris; 1M NaCl; pH 7.5)
# Tris-buffer+HSA 0.1%; Human Serum Albumin from Calbiochem (Cat#. 126658)
# Serine-protease buffer (20 mM Tris; 100 mM NaCl; pH 7.5)+0.1% HSA
# Serine protease lysis buffer: 20 mM Tris-HCl; 100 mM NaCl pH 7.5; +0.2% Nonidet-P40;
# PBS: phosphate buffered saline, without Ca and Mg, from Gibco
# U937 from ECACC (Cat. No. 85011440) cultured in suspension at 37° C. and 5% CO2.
# Cell density: 0.2-1 Mio. Cells/ml.
# Medium: RPMI1640 GlutaMAX (No. 61870) with 10% FCS from Gibco
# Cell Seeding and Treatment:
# Compounds in 100% DMSO were diluted in Medium (−FCS) with 10% DMSO and further diluted according to the experiment planned.
# 20 μl of the compound solution was transferred in the respective wells of the 24 well plate and diluted with 2 ml cell suspension/well containing 1×10^5 cells/ml (final concentration of DMSO=0.1%). Compound dilution factor=100
# Compounds (up to 7 concentrations) were tested in triplicates with 3 wells for the DMSO 0.1% control, incubated for 48 hours without medium change at 37° C., 5% CO2 and 95% relative humidity.
# Cell Harvesting and Cell Lysate:
# Transfer the cell suspension in 2 ml 96 well assay block. Separate cells from medium by centrifugation (500×g; 10 min; RT); discard the supernatant. Resuspend in 1 ml PBS; centrifugation (500×g; 10 min; RT); wash cells twice with PBS. Add 80 μl Serine protease lysis buffer (ice cold) to the cell pellet; resuspend the pellet and store on ice for 10 minutes. Remove debris by centrifugation at 1000×g for 10 min at 4° C. Transfer 80-100 μl lysate supernatant in 96 well plate and store immediately at −80° C.
# Neutrophil Elastase Activity Assay:
# Frozen lysates were thaw at 37° C. for 10 minutes and stored on ice. Protein content was determined with Bradford protein assay. Lysates were diluted to 0.2-0.5 mg/ml protein in serine protease buffer+HSA.
# Standard: NE (100 μg/ml stock solution in Tris-buffer; stored at −80° C.) was diluted in Tris-buffer+HSA to 750 ng/ml, and further serially diluted 1:2 for the standard curve. Buffer, blank, standard and lysate samples were transferred into 384 well plate
# Blank: 5 μl Tris-buffer+10 μl Serine protease buffer+5 μl Substrate
# Standard: 5 μl Tris-buffer+10 μl NE (diff. conc.)+5 μl Substrate
# Lysate: 5 μl Tris-buffer+10 μl Lysat+5 μl Substrate
# The increase in fluorescence (Ex360 nm/Em 460 nm) is determined after 30 minutes with a Molecular Device Spectramax M5 Fluorescence Reader. The result is interpolated to ng/mg lysate protein using excel formula functions. Percent inhibition in the compound-treated lysate samples is calculated relative to the DMSO-treated control-sample (100−(compound-sample*100)/control-sample)
# A test compound will give values between 0% and 100% inhibition of neutrophil elastase. IC50 is calculated using Graphpad Prism; nonlinear fitting (log(inhibitor) vs. response—Variable slope). The IC50 value is interpolated as the concentration of test compound which leads to a neutrophil elastase activity reduction of 50% (relative to the DMSO-treated control).
Structure (SMILES),half-life at 1 μM [1] [h],Inhibition of neutrophil elastase activity in BALF lysate after the pretreatment with Cathepsin C inhibitor [2] [%],pIC50 [3],pIC50 [4]
"N#C[C@H](Cc1ccc(-c2ccc3c(n2)C2(CCN(C4COC4)CC2)OC3)cc1F)NC(=O)[C@H]1N[C@@H]2CC[C@H]1C2 [Example 25, (1S,2S,4R)—N-[(1S)-1-cyano-2-[2-fluoro-4-[1′-(oxetan-3-yl)spiro[5H-furo[3,4-b]pyridine-7,4′-piperidine]-2-yl]phenyl]ethyl]-3-azabicyclo[2.2.1]heptane-2-carboxamide]",> 2.17,94,8.74,8.80
"N#C[C@H](Cc1ccc(-c2ccc3c(c2)C2(CCN(C4COC4)CC2)OC3)cc1F)NC(=O)[C@H]1N[C@@H]2CC[C@H]1C2 [Example 1, (1S,2S,4R)—N-[(1S)-1-cyano-2-[2-fluoro-4-[1′-(oxetan-3-yl)spiro[1H-isobenzofuran-3,4′-piperidine]-5-yl]phenyl]ethyl]-3-azabicyclo[2.2.1]heptane-2-carboxamide]",> 2.17,96,8.96,9.00
N#C[C@H](Cc1ccc(-c2ccc3c(c2)C2(CCNCC2)OC3)cc1F)NC(=O)[C@H]1N[C@@H]2CC[C@H]1C2 [Example 13],> 2.17,,9.22,7.78
CN1CCC2(CC1)C(=O)Nc1ccc(-c3ccc(C[C@@H](C#N)NC(=O)[C@H]4N[C@@H]5CC[C@H]4C5)c(F)c3)cc12 [Example 6],1.83,,9.70,7.65

# Source: patent publication US9540373B2, “Substituted spirocycles” (Boehringer Ingelheim International GmbH, priority 2014, dated 2017)
